Measured values reported in ChEMBL document CHEMBL5620368, “Molecular-level strategic goals and repressors in Leishmaniasis - Integrated data to accelerate target-based heterocyclic scaffolds” (Eur J Med Chem, 2023).
In brackets after ≈: the same amount, converted by molar mass.

Tests used:
DNA topoisomerase I = molecular target: T1, DNA topoisomerase I (Leishmania donovani (strain BPK282A1), UniProt E9BRC0); experiment: Inhibition of Leishmania donovani DNA topoisomerase I
T1 sequence (E9BRC0 whole entry): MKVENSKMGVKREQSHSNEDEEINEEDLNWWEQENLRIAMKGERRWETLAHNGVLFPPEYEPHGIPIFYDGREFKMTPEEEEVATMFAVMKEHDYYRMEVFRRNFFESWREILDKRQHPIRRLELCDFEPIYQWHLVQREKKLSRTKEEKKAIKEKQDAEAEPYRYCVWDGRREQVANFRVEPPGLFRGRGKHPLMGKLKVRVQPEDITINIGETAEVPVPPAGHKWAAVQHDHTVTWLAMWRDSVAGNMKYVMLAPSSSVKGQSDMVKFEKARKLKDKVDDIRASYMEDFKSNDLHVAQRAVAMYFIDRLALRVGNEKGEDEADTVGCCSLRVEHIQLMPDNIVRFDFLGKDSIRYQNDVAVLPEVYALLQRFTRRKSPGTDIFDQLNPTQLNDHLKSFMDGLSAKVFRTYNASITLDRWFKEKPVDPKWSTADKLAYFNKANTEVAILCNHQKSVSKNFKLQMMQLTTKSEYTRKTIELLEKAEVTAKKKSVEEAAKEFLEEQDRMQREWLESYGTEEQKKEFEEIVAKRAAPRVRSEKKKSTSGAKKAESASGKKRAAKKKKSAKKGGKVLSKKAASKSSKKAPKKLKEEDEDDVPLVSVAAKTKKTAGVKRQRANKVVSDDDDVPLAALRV

[1] = Inhibition of Leishmania braziliensis DNA topoisomerase I
Arginase [2] = molecular target: T2, Arginase (Leishmania amazonensis, UniProt O96394); experiment: Inhibition of Leishmania amazonensis Arginase
Leishmania mexicana = experiment: Antileishmanial activity against Leishmania mexicana promastigotes MHOM/B2/62/BEL21 assessed as reduction in parasite growth by tryphan blue staining based analysis; format: functional, organism-based
Leishmania donovani [3] = experiment: Antileishmanial activity against Leishmania donovani MHOM/IN/1983/AG83 promastigote assessed as reduction in parasite growth incubated for 12 hrs by MTT assay; format: functional, organism-based; conditions: MHOM/IN/1983/AG83, 12 h
Leishmania donovani [4] = experiment: Antileishmanial activity against Leishmania donovani promastigotes infected in hamster assessed as reduction in parasite load in spleen; format: functional, organism-based
Leishmania donovani [5] = experiment: Antileishmanial activity against Leishmania donovani MHOM/IN/83/AG83 promastigotes infected in BALB/c mouse assessed as reduction of parasite burden in spleen at 20 mg/kg per day relative to control; format: functional; parameters: scale not given: the % may be the effect or the level left
Leishmania major = experiment: Antileishmanial activity against Leishmania major amastigotes assessed as reduction in parasite growth incubated for 72 hrs by MTS assay; format: functional, organism-based
Leishmania donovani [6] = experiment: Antileishmanial activity against Leishmania donovani amastigotes assessed as parasite growth inhibition incubated for 72 hrs by MTS assay; format: functional, organism-based
Leishmania infantum [7] = experiment: Antileishmanial activity against GFP-expressing Leishmania infantum intracellular amastigotes infected in human THP-1 derived macrophage cells assessed as reduction in parasite viability measured for 72 hrs by resazurin/alamar blue fluorometric assay; format: functional, organism-based; conditions: THP-1, 72 h
Leishmania donovani [8] = experiment: Antileishmanial activity against Leishmania donovani Ag83 amastigotes infected in BALB/c mouse macrophage assessed as cell viability incubated for 48 hrs by PI staining based analysis; format: functional, organism-based; conditions: Ag83, 48 h
Leishmania infantum [9] = experiment: Antileishmanial activity against Leishmania infantum amastigotes assessed as inhibition of parasite growth; format: functional, organism-based
Arginase [10] = molecular target: T2, Arginase; experiment: Inhibition of Leishmania amazonensis Arginase assessed as inhibition constant
Leishmania amazonensis [11] = experiment: Antiprotozoal activity against Leishmania amazonensis axenic amastigotes assessed as growth inhibition measured after 5 days by MTT assay; format: functional, organism-based; conditions: 120 h
Leishmania amazonensis [12] = experiment: Antileishmanial activity against Leishmania amazonensis axenic amastigote assessed as inhibition of parasite growth incubated for 72 hrs by MTT colorimetric assay; format: functional, organism-based
Leishmania amazonensis [13] = experiment: Antileishmanial activity against Leishmania amazonensis axenic promastigotes assessed as inhibition of parasite growth incubated for 72 hrs by MTT colorimetric assay; format: functional, organism-based
[14] = Inhibition of Leishmania infantum Trypanothione reductase expressed in Escherichia coli BL21 (DE3) using trypanothione as substrate preincubated for 3 mins followed NADPH addition by Dixon plot analysis
Leishmania infantum [15] = experiment: Antileishmanial activity against Leishmania infantum MCAN/ES/ 89/IPZ229/1/89 axenic amastigotes assessed as reduction in parasite viability treated for 24 hrs by PI staining based flow cytometry; format: functional, organism-based; conditions: MCAN/ES/ 89/IPZ229/1/89, 24 h
Leishmania infantum [16] = experiment: Antileishmanial activity against Leishmania infantum MCAN/ES/ 89/IPZ229/1/89 promastigote assessed as reduction in parasite viability incubated for 24 hrs by PI staining based flow cytometry; format: functional, organism-based; conditions: MCAN/ES/ 89/IPZ229/1/89, 24 h
[17] = Inhibition of Leishmania infantum Trypanothione reductase
Leishmania infantum [18] = experiment: Antileishmanial activity against Leishmania infantum infected in BALB/c mouse assessed as reduction of parasite burden in spleen at 2.5 mg/kg for 15 days relative to control; format: functional; parameters: scale not given: the % may be the effect or the level left; conditions: time 15 day
[19] = Inhibition of recombinant rat liver arginase
Leishmania donovani [20] = experiment: Antileishmanial activity against Leishmania donovani promastigotes infected in golden hamster assessed as reduction in parasite load in spleen at 3 mg/kg administered twice per week for 4 weeks relative to control; format: functional; parameters: scale not given: the % may be the effect or the level left
Leishmania amazonensis [21] = experiment: Antileishmanial activity against Leishmania amazonensis promastigotes assessed as reduction in parasite growth after 72 hrs by CCK-8 assay; format: functional, organism-based

COc1cc2c3c(c1)Oc1c(OC)c(OC)c(OC)c4c1C(Cc1ccc(cc1)Oc1cc(ccc1OC)C[C@H]3N(C)CC2)N(C)CC4 (stereo not given in full)
IC50 (DNA topoisomerase I): 50 µM

CCCCCC(C1=C(O)C(=O)c2ccccc2C1=O)C1=C(O)C(=O)c2ccccc2C1=O
IC50 [1]: 5.2 µM

O=c1c(O)c(-c2ccc(O)c(O)c2)oc2cc(O)ccc12 [FISETIN]
IC50 (Arginase [2]): 1.4 µM

O=c1cc(-c2ccccc2)oc2c(O)c(O)ccc12 [7,8-DIHYDROXYFLAVONE]
IC50 (Arginase [2]): 12 µM

CCCCCCCCCCCCCCCCOP(=O)([O-])OCC[N+](C)(C)C [MILTEFOSINE]
IC50 (Leishmania mexicana): 2.18 µg/mL (≈ 5.35 µM)

O=C(c1ccc(Br)cc1)c1cc(O)cc(-c2ccc(Br)cc2)c1
IC50 (Leishmania donovani [3]): 6.01 µM | IC50 (Leishmania donovani [4]): 11.5 µM

sodium antimony gluconate
Activity (Leishmania donovani [5]): 97%

C/C=C(\CC[C@@H](C)[C@H]1CC[C@H]2[C@@H]3CC=C4C[C@@H](O)CC[C@]4(C)[C@H]3CC[C@]12C)C(C)C [FUCOSTEROL]
IC50 (Leishmania major): 19 µg/mL (≈ 46 µM) | IC50 (Leishmania donovani [6]): 18.5 µg/mL (≈ 44.8 µM)

O=C(CC12CC3CC(CC(C3)C1)C2)Nc1ccc([Se][Se]c2ccc(NC(=O)C34CC5CC(CC(C5)C3)C4)cc2)cc1
EC50 (Leishmania infantum [7]): 1.19 µM

C/C=C1/CN(C)[C@H]2Cc3c([nH]c4ccccc34)[C@H](c3cc4[nH]c5c(c4cc3OC)CCN3C[C@@H]4C[C@H](CC)[C@H]3[C@@]5(C(=O)OC)C4)C[C@@H]1C2C(=O)OC (stereo not given in full)
EC50 (Leishmania donovani [8]): 1.68 µM

Fc1ccc(C2Nc3cccnc3[C@H]3c4ccccc4C[C@@H]23)c(F)c1 (stereo not given in full)
IC50 (Leishmania infantum [9]): 0.67 µM

CC1OC(O[C@H]2[C@H](O)[C@@H](OCCc3ccc(O)c(O)c3)OC(CO)[C@H]2OC(=O)/C=C/c2ccc(O)c(O)c2)C(O)C(O)C1O (stereo not given in full)
IC50 (Arginase [2]): 14 µM | Ki (Arginase [10]): 26 µM

COc1ccc2c(c[n+](C)c3c4cc5c(cc4ccc23)OCO5)c1OC [CHELERYTHRINE]
IC50 (Leishmania amazonensis [11]): 0.03 µM

O=C(/C=C/c1ccc(O)c(O)c1)O[C@@H](Cc1ccc(O)c(O)c1)C(=O)O
IC50 (Arginase [2]): 28 µM | Ki (Arginase [10]): 1.3 µM

O=C1C(O)=C(CC2=C(O)C(=O)c3ccccc3C2=O)C(=O)c2ccccc21
IC50 [1]: 71 µM

CO[C@@]12[C@H](COC(N)=O)C3=C(C(=O)C(C)=C(N)C3=O)N1C[C@@H]1N[C@@H]12 [MITOMYCIN]
IC50 (Leishmania amazonensis [12]): 11.5 µM | IC50 (Leishmania amazonensis [13]): 12.8 µM

Cc1cc(NC(=O)c2ccc([N+](=O)[O-])s2)ccc1Br
IC50 [14]: 0.19 µM

CC(=O)Oc1ccc(OC(C)=O)c2cc3c(cc12)CCCC3(C)C
IC50 (DNA topoisomerase I): > 100 µM

NCCNCc1nccn1-c1ccc(-c2nc(CCc3cccc4ccccc34)cs2)c(OCCN2CCNC2=O)c1
EC50 (Leishmania infantum [15]): 12.8 µM | EC50 (Leishmania infantum [16]): 12.8 µM | IC50 [17]: 5.1 µM

O=C1c2ccccc2-c2c1c1ccc([N+](=O)[O-])cc1c(=O)n2CCCN1CCOCC1
Activity (Leishmania infantum [18]): 80%

Oc1cc(O)c2c(c1)O[C@@H](c1ccc(O)c(O)c1)[C@H](O)C2 [(-)-CATECHIN]
IC50 [19]: 0.77 µM

O=c1c(O)c(-c2ccc(O)c(O)c2)oc2cc(O)cc(O)c12 [QUERCETIN]
IC50 (Arginase [2]): 4.3 µM

CC(C)CN(C[C@@H](O)[C@H](Cc1ccccc1)NC(=O)O[C@H]1CCOC1)S(=O)(=O)c1ccc(N)cc1 [AMPRENAVIR]
Activity (Leishmania donovani [5]): 98%

O=C(Nc1ccc(F)c(-c2ccn3c(N4CCOCC4)cnc3n2)c1)N1CCCC1 [GSK-3494245]
Activity (Leishmania donovani [20]): 95%

COc1cccc2c1C(=O)c1c(O)c3c(c(O)c1C2=O)C[C@@](O)(C(=O)CO)C[C@@H]3O[C@H]1C[C@H](N)[C@H](O)[C@H](C)O1 [DOXORUBICIN]
IC50 (Leishmania amazonensis [12]): 12 µM | IC50 (Leishmania amazonensis [13]): 11.8 µM

O=c1cc(-c2ccc(O)c(O)c2)oc2c(C3OC(CO)[C@@H](O)[C@@H](O)[C@@H]3O)c(O)cc(O)c12 (stereo not given in full)
IC50 (Leishmania amazonensis [21]): 15.9 µM

COc1cc2c3c(n(CCCN4CCOCC4)c(=O)c2cc1OC)-c1cc2c(cc1C3=O)OCO2 [INDOTECAN]
Activity (Leishmania infantum [18]): 80%
